The results in this text go back to patent publication EP0306826A1, “N-(substituted alkylidene)fused bicycloalkylidene and hetero-alkylidene quinolinamines, a process for their preparation and their use as medicaments” (HOECHST-ROUSSEL PHARMACEUTICALS INCORPORATED, priority 1987, dated 1989).

Structures are written as SMILES.

What is called IC50 is the concentration that gives 50% inhibition. Low readings indicate greater potency, high ones weaker potency.

One experiment concerns the target acetylcholinesterase (Homo sapiens, UniProt P22303). Put plainly: Acetylcholinesterase Inhibition Assay (photometric method of Ellman et al.). The class given is biochemical.
In a further experiment the test system is mice. Put plainly: Dark Avoidance Assay (reversal of scopolamine induced memory deficit). The class given is in vivo. How it is done:
In this assay mice are tested for their ability to remember an unpleasant stimulus for a period of 24 hours. A mouse is placed in a chamber that contains a dark compartment; a strong incandescent light drives it to the dark compartment, where an electric shock is administered through metal plates on the floor. The animal is removed from the testing apparatus and tested again, 24 hours later, for the ability to remember the electric shock.
If scopolamine, an anticholinergic that is known to cause memory impairment, is administered before an animal's initial exposure to the test chamber, the animal re-enters the dark compartment shortly after being placed in the test chamber 24 hours later. This effect of scopolamine is blocked by an active test compound, resulting in a greater interval before re-entry into the dark compartment.
The test results are expressed as the percent of a group of animals in which the effect of scopolamine is blocked, as manifested by an increased interval between being placed in the test chamber and re-entering the dark compartment.

Chain of acetylcholinesterase (P22303 32-614): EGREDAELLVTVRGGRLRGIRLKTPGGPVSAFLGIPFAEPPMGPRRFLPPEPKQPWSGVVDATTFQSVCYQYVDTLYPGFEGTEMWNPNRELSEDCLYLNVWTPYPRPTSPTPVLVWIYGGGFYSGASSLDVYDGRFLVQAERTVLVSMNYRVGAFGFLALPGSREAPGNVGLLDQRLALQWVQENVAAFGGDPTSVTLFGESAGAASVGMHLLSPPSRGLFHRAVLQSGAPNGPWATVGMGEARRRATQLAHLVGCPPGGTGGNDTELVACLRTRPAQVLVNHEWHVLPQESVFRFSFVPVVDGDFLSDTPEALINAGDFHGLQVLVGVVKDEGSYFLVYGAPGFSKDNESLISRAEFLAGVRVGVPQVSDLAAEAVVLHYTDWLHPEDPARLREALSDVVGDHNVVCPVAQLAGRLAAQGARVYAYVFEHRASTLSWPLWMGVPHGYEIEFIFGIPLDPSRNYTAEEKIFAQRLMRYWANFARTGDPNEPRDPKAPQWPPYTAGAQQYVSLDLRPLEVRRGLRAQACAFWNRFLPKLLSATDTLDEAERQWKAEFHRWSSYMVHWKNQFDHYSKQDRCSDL

The compound `C(=Nc1c2c(nc3ccccc13)C1CCC2C1)c1ccccc1` (stereo not shown) [1,4-Methano-N-(phenylmethylene)-1,2,3,4-tetrahydro-9-acridinamine] came in with an IC50 on acetylcholinesterase of 12 µM. Also, the “% of Animals with Scopolamine Induced Memory Deficit Reversal” value in the experiment on mice (mice, dose 0.31 mg/kg of body weight, s.c, retest 24 hours later) is on record as 27%. `FC(F)(F)c1ccc2c(N=Cc3ccccc3)c3c(nc2c1)C1CCC3C1` (stereo not shown) [1,4-Methano-N-(phenylmethylene)-6-trifluoromethyl-1,2,3,4-tetrahydro-9-acridinamine] had a half-inhibitory concentration (IC50) on acetylcholinesterase of 22 µM. On to `CNC(=O)Oc1ccc2c(c1)[C@]1(C)CCN(C)[C@@H]1N2C` [Physostigmine, reference compound], for which, in the experiment on mice (mouse, in vivo, 0.31 mg/kg), the “% of Animals with Scopolamine Induced Memory Deficit Reversal” value stood at 20%.
